Measured values: patent publication US8044103B2, “Cyclic dipeptides and azetidinone compounds and their use in treating CNS injury and neurodegenerative disorders” (Georgetown University, priority 1998, dated 2011)

Experiments:
Type in all cases: in vivo, Male C57Bl/6 mice
[1] = test system: mice following controlled cortical impact injury (CCI); experiment: Morris watermaze, place learning version, after controlled cortical impact injury
Experimental: (§1) Male C57Bl/6 mice (20-25 g) were obtained from Taconic Farms (Germantown, N.Y.) and housed in an area directly adjoining surgical and behavioral rooms for at least 1 week prior to any procedures. All mice were maintained at a constant temperature (22±2° C.) and a 12 hr light/dark cycle, with lights on at 6 am and all behavioral testing performed during the light cycle. Food and water were available ad libitumn.
(§2) Surgical anesthesia was induced and maintained with 4% and 2% isoflurane respectively, using a flow rate of 1.0-1.5 l oxygen per minute. Depth of anesthesia was assessed by monitoring respiration rate and palpebral and pedal-withdrawal reflexes. The animal was then placed onto a heated pad and core body temperature was monitored and maintained at 38+/−0.2° C. The head was mounted in a stereotaxic frame and the surgical site clipped and prepared with a series of three Nolvasan scrubs followed by sterile saline rinses. A 10 mm mid-line incision was made over the skull, the skin and fascia reflected, and a 4 mm craniotomy made on the central aspect of the left parietal bone with a tissue punch (Roboz, USA). Great care was taken with the removal of the parietal bone to avoid injury to the underlying dura mater which was continuously bathed in sterile normal saline warmed to 37.5° C. The impounder tip of the pneumatic injury device was cleaned with a pad, soaked in absolute alcohol, positioned to the surface of the exposed dura and automatically withdrawn the 44 mm stroke distance. Following injury at a moderate (6.0 m/s velocity, 1 mm tissue deformation depth) level, the incision was closed with interrupted 6-0 silk sutures, anaesthesia was discontinued and the mouse was placed into a heated cage to maintain normothermia for 45 minutes post-injury. All animals were monitored carefully for at least 4 hours post-surgery and then daily. To minimize variation between animals due to anaesthesia during acute neurological testing, 20 minutes was allowed for surgery and 5 minutes for suturing for each animal.
[…] The values for n represents the number of mice in the particular treatment group. The investigator was blinded to drug treatment both at the time of surgery and for neurological and behavioral scoring.
The Morris watermaze (Morris, 1984, J. Neurosci. Meth. 22:47-60) is employed to assess spatial learning by training mice to locate a hidden, submerged platform using extramaze visual information. The apparatus consists of a large, white circular pool (900 mm diameter, 500 mm high, water temperature 24±1° C.) with a plexiglass platform 76 mm diameter painted white and submerged 15 mm below the surface of water (225 mm high) which is rendered opaque with the addition of dilute, white, non-toxic paint. During training, the platform is hidden in one quadrant 14 cm from the side wall. The mouse is gently placed into the water facing the wall at one of four randomly-chosen locations separated by 90 degrees. The latency to find the hidden platform within a 90 second criterion time is recorded by a blinded observer. […]
Continuous variables compared across groups are examined using an analysis of variance (ANOVA) followed by Bonferroni correction (acute reflexes). Continuous variables subjected to repeated measurements over a period of time (beam walking, Morris water maze) are analyzed using a repeated measurements ANOVA followed by Tukey's pairwise comparison at each time point. […]

[2] = test system: mice following controlled cortical impact injury (CCI); experiment: Beam walking task after controlled cortical impact injury (chronic neurological recovery)
Experimental: as §1
The injury device consisted of a microprocessor-controlled pneumatic impactor with a 3.5 mm diameter tip. The impactor is vertically mounted on a mill table (Sherline, USA) which allows for precise adjustment in the vertical plane above the mouse head, which itself is secured to a stereotaxic apparatus (David Kopf Instruments, CA) attached to the instrument. The core rod of a linear voltage differential transducer (LVDT, Serotec, USA) is attached to the lower end of the impactor to allow measurement of velocities between 3.0 and 9.0 m/s. Velocity of the impactor is controlled by fine tuning both positive and negative (back) air pressures. An oscilloscope (Tektronix, USA) records the time/displacement curve produced by the downward force on the LVDT, allowing precise measurement of the impactor velocity.
as §2
(§3) Conscious mice were placed in a mouse restrainer and injected via the lateral tail vein with either normal saline (injured controls; n=6), 1 mg/kg Compound 2a (n=8), Compound 10b (n=6), Compound 11b (n=6) or Compound 14c (n=6) at 30 minutes following controlled cortical impact injury (CCI). The values for n represents the number of mice in the particular treatment group. The investigator was blinded to drug treatment both at the time of surgery and for neurological and behavioral scoring.
Chronic neurological recovery was evaluated for all animals using a beam walking task, a method which is particularly good at discriminating fine motor coordination differences between injured and sham-operated animals. The device consisted of a narrow wooden beam 6 mm wide and 120 mm in length which was suspended 300 mm above a 60 mm-thick foam rubber pad. The mouse was placed on one end of the beam and the number of footfaults for the right hindlimb recorded over 50 steps counted in either direction on the beam. A basal level of competence at this task was established before surgery with an acceptance level of <10 faults per 50 steps. […]

[3] = test system: mice following controlled cortical impact injury (CCI); experiment: Morris watermaze, working memory version, after controlled cortical impact injury; details: 1.0 mg/kg at 30 min following CCI; day 24 after trauma; p<0.05
Experimental: FIG. 7 provides a graph illustrating the latency of finding a hidden platform in a working memory version of the Morris watermaze for uninjured control mice (sham+saline) and mice treated with normal saline (CCI+saline) or 1.0 mg/kg Compound 2a (CCI+Compound 2a) at 30 min. following controlled cortical injury (CCI). Filled bars (▪) represent the first of two consecutive trials; unfilled bars ( ? ) represent the second of two consecutive trials. Results are expressed as daily means±SEM for each group over four trial pairs. * indicates p<0.05 with respect to uninjured controls (sham+saline); # indicates p<0.05 with respect to injured saline-treated controls (CCI+saline).
as §3
To determine the effect of CCI on working memory, the daily mean latency (+SEM) to find the goal platform on both trials was calculated for each group. […]

SMILES: O=C1NC2(CCCCC2)C(=O)N2CCC[C@@H]12 [Compound 2a, Cyclo[(1-Amino-1-Cyclohexane-Carboxylic Acid)-Pro]]
- latency to find hidden platform (place learning) versus sham-operated controls, day 8 ([1]; 1.0 mg/kg at 30 min following CCI, day 8, p<0.001): significantly different from sham-operated controls
- latency to find hidden platform (place learning) versus sham-operated controls, day 9 ([1]; 1.0 mg/kg at 30 min following CCI, day 9 (third day of training), p>0.05, out-performing saline-treated): no longer significantly different from sham-operated controls
- latency to find goal platform (place learning) versus saline-treated injured mice, last day of training ([1]; 1.0 mg/kg at 30 min following CCI, day 10, p<0.01): significantly improved latencies
- place-learning compared with saline-treated controls (CCI+saline), dose-response experiments ([1]; 0.1, 1.0 or 10.0 mg/kg at 60 min following CCI, 10 days post-surgery, all treatment groups): improved place-learning
- dose giving the most improved learning (place learning watermaze) ([1]; 0.1, 1.0 or 10.0 mg/kg at 60 min following CCI, by 10 days post-surgery): 10 mg/kg
- beam walking, time course of recovery of function ([2]; 1 mg/kg i.v. at 30 min following CCI): began to show some recovery of function after 3 days
- beam walking performance (right hindlimb footfaults) compared with saline-treated injured animals ([2]; 1 mg/kg i.v. at 30 min following CCI, 14 days following injury, p<0.05): significant improvement in performance
- beam walking outcome (right hindlimb footfaults) compared with saline-treated animals ([2]; 1 mg/kg i.v. at 30 min following CCI, 21 days post-injury, p<0.01): continued improvement in outcome
- dose with optimal effects in beam walking (inverted U-shaped dose-response curve) ([2]; 0.1, 1.0 or 10.0 mg/kg at 60 minutes following CCI): 1 mg/kg
- latency to goal platform, first of trial pair (reference memory), versus untreated injured animals [3]: significantly improved
- latency to goal platform, second of trial pair (working memory), versus untreated injured animals [3]: significantly improved
